In patent US8772267B2, “Treatment of spinal mechanical pain” (New York University, priority 2002, dated 2014):

How the values were obtained:
[1] = known; cited from earlier work
[2] = tested on: antinociception; details: injected into the tails of mice; cited from earlier work
[3] = tested on: axial mechanical pain of the spine; assay: Axial spinal pain on a numerical scale after intravenous infusion in subjects with chronic spinal mechanical pain; type: in vivo, human
Method: (§1) Three subjects, suffering from chronic daily (longer than 1 year) axial mechanical pain of the spine, were given approximately 1.2 mg per kg pamidronate as an intravenous infusion over 4 hours once a day for three consecutive days (total 3.6 mg/kg).
(§2) On the second day of infusion, 2 of the 3 subjects reported myalgias that responded well to anti-inflammatory (NSAID) agents. […] Assessments of axial spinal pain using a numerical scale (0=no pain; 10=the worst pain imaginable) were performed at baseline and at 1 month, 2 month, 4 month, and 6 month follow-up visits.

[4] = tested on: bone resorption; details: animal studies, cited from earlier work
[5] = Bone density of the infused subjects; type: in vivo, human; details: all three subjects
Method: as §1
Assessments of axial spinal pain using a numerical scale (0=no pain; 10=the worst pain imaginable) were performed at baseline and at 1 month, 2 month, 4 month, and 6 month follow-up visits.

[6] = Adverse effects in the infused subjects; type: in vivo, human
Method: as §1, §2

[7] = tested on: bone pain from metastatic cancer; details: patients suffering from bone pain from metastatic cancer; cited from earlier work
[8] = Subject 1, baseline 8, scale 0-10, 1.2 mg/kg iv once a day for 3 days
[9] = Subject 2, baseline 8-9, scale 0-10, 1.2 mg/kg iv once a day for 3 days
[10] = Subject 3, baseline 5, scale 0-10, 1.2 mg/kg iv once a day for 3 days

## CC(C)Cc1ccc(C(C)C(=O)O)cc1 (centres unmarked) [ibuprofen]
[1]
  duration of analgesic effect: only a few hours

## NCCCC(O)(P(=O)(O)O)P(=O)(O)O [alendronate]
[2]
  antinociceptive effect: analgesic effect only at the highest dose tested

## CC(=O)Oc1ccccc1C(=O)O [acetylsalicylic acid]
[2]
  antinociceptive effect: dose-dependent antinociception

## NCCC(O)(P(=O)(O)O)P(=O)(O)O [pamidronate]
[3]; 2 months from initiation of infusion therapy
  use of opioid agents: all subjects discontinued the opioid agents
[3]; 6 months after therapy, all three subjects
  pain status of all three subjects 6 months after the 3-day therapy: pain free
[3]; Subject 1 (DDD and osteopenia), baseline 8, 0=no pain, 10=worst pain imaginable, 1.2 mg/kg iv over 4 h once a day for 3 days
  axial spinal pain, numerical scale, 1 month: 4
[3]; [8]
  axial spinal pain, numerical scale, 2 months: 0
  axial spinal pain, numerical scale, 4 months: 0
  axial spinal pain, numerical scale, 6 months: 0
[3]; Subject 2 (DDD and moderate osteoporosis), baseline 8-9, scale 0-10, 1.2 mg/kg iv once a day for 3 days
  axial spinal pain, numerical scale, 1 month: 5
[3]; [9]
  axial spinal pain, numerical scale, 2 months: 0
  axial spinal pain, numerical scale, 4 months: 0
  axial spinal pain, numerical scale, 6 months: 0
[3]; Subject 3 (DDD), baseline 5, scale 0-10, 1.2 mg/kg iv once a day for 3 days
  axial spinal pain, numerical scale, 1 month: 0
[3]; [10]
  axial spinal pain, numerical scale, 2 months: 0
  axial spinal pain, numerical scale, 4 months: 0
  axial spinal pain, numerical scale, 6 months: 0
[3]; iv treatment of chronic spinal mechanical pain
  duration of pain relieving effects: ≥ 6 months
[4]; doses recommended for the treatment of hypercalcemia
  effect on bone resorption: inhibits bone resorption apparently without inhibiting bone formation and mineralization
[4]
  effect on accelerated bone resorption from osteoclast hyperactivity induced by various tumors: inhibits the accelerated bone resorption
[5]
  bone density change: increase in their bone density
[5]; 6 months post-infusion
  bone density change at 6 months post-infusion: increase in their bone density
[2]
  antinociceptive effect: dose-dependent antinociception
[6]; second day of infusion, responded well to NSAID agents
  subjects reporting myalgias: 2 of the 3
[6]; three subjects, 3.6 mg/kg total iv
  hypocalcemia, cardiac, hepatic or renal impairments: did not exhibit any hypocalcemia, cardiac, hepatic or renal impairments
[7]
  longest reported duration of analgesic effect: 2-3 weeks

## CC(O)(P(=O)(O)O)P(=O)(O)O [etidronate]
[2]
  antinociceptive effect: analgesic effect only at the highest dose tested

## O=P(O)(O)C(Cl)(Cl)P(=O)(O)O [clodronate]
[2]
  antinociceptive effect: dose-dependent antinociception

## CC(=O)Nc1ccc(O)cc1 [acetaminophen]
[1]
  duration of analgesic effect: only a few hours
